Results: patent US9302999B2, “Substituted triazoles as herbicides” (E. I. DU PONT DE NEMOURS AND COMPANY, priority 2012, dated 2016)

Key:
[1] = test system: waterhemp (common waterhemp, Amaranthus rudis); experiment: Test F pre-/postemergence: waterhemp; format: in vivo
Excerpt: Seeds of plant species selected from corn (Zea mays), soybean (Glycine max), velvetleaf (Abutilon theophrasti), lambsquarters (Chenopodium album), poinsettia, wild (wild poinsettia, Euphorbia heterophylla), pigweed, palmer (palmer pigweed, Amaranthus palmeri), waterhemp (common waterhemp, Amaranthus rudis), surinam grass (Brachiaria decumbens), crabgrass, Brazil (Brazilian crabgrass, Digitaria horizontalis), panicum, fall (fall panicum Panicum dichotomiflorum), crabgrass, large (large crabgrass, Digitaria sanguinalis), foxtail, giant (giant foxtail, Setaria faberii), foxtail, green (green foxtail Setaria viridis), goosegrass (Eleusine indica), ragweed (common ragweed, Ambrosia elatior), barnyardgrass (Echinochloa crus-galli), sandbur (southern sandbur, Cenchrus echinatus), arrowleaf sida (Sida rhombifolia), ryegrass, Italian (Italian ryegrass, Lolium multiflorum), dayflower, VA (Virginia (VA) dayflower, Commelina virginica), field bindweed (Convolvulus arvensis), cocklebur (common cocklebur, Xanthium strumarium), morningglory (Ipomoea coccinea), nightshade (eastern black nightshade, Solanum ptycanthum), kochia (Kochia scoparia), nutsedge, yellow (yellow nutsedge, Cyperus esculentus), johnsongrass (Sorghum halepense), smartweed (ladysthumb smartweed, Polygonum persicaria), and beggarticks (hairy beggarticks, Bidens pilosa), were planted into a silt loam soil and treated preemergence with test chemicals formulated in a non-phytotoxic solvent mixture which included a surfactant. At the same time, plants selected from these crop and weed species and also pigweed (Amaranthus retroflexus), waterhemp_RES1 (ALS/Triazine resistant common waterhemp, Amaranthus rudis) and waterhemp_RES2 (ALS/HPPD resistant common waterhemp, Amaranthus rudis) were planted in pots containing a planting medium comprising spaghnum peat moss, vermiculite, wetting agent and starter nutrients treated with postemergence applications of some of the test chemicals formulated in the same manner. Plants ranged in height from 2 to 18 cm for postemergence treatments (1- to 4-leaf stage).
Treated plants and controls were maintained in a greenhouse for 14 to 21 days, after which time all species were compared to controls and visually evaluated. Plant response ratings, summarized in Table E, are based on a scale of 0 to 100 where 0 is no effect and 100 is complete control. A dash (-) response means no test result.

[2] = test system: surinam grass (Brachiaria decumbens); experiment: Test F pre-/postemergence: surinam grass; format: in vivo; details: Preemergence, scale 0 to 100, 0 no effect, 100 complete control
Method in brief: (§1)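 Seeds were sown in silt loam soil and sprayed preemergence with test chemical in a non-phytotoxic solvent mixture containing surfactant; postemergence treatments went onto plants 2 to 18 cm tall (1- to 4-leaf stage) grown in peat moss/vermiculite medium. After 14 to 21 days in a greenhouse, injury was rated visually against controls, 0 (no effect) to 100 (complete control).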

[3] = test system: goosegrass (Eleusine indica); experiment: Test F pre-/postemergence: goosegrass; format: in vivo; details: Preemergence
Method in brief: as §1

[4] = test system: Oilseed Rape; experiment: Test C postemergence: oilseed rape; format: in vivo, Brassica napus; details: 125 g ai/ha, scale 0 to 100, 0 no effect, 100 complete control
Excerpt: Seeds of plant species selected from blackgrass (Alopecurus myosuroides), bromegrass, downy (downy bromegrass, Bromus tectorum), foxtail, green (green foxtail, Setaria viridis), ryegrass, Italian (Italian ryegrass, Lolium multiflorum), winter wheat (Triticum aestivum), wild oat (Avena fatua), galium (catchweed bedstraw, Galium aparine), bermudagrass (Cynodon dactylon), surinam grass (Brachiaria decumbens), cocklebur (common cocklebur, Xanthium strumarium), corn (Zea mays), large crabgrass (Digitaria sanguinalis), woolly cupgrass (Eriochloa villosa), foxtail, giant (giant foxtail, Setaria faberii), goosegrass (Eleusine indica), johnsongrass (Sorghum halepense), kochia (Kochia scoparia), lambsquarters (Chenopodium album), morningglory (Ipomoea coccinea), nightshade (eastern black nightshade, Solanum ptycanthum), nutsedge, yellow (yellow nutsedge, Cyperus esculentus), pigweed (Amaranthus retroflexus), ragweed (common ragweed, Ambrosia elation), soybean (Glycine max), common (oilseed) sunflower (Helianthus annuus), Russian thistle (Salsola kali) and velvetleaf (Abutilon theophrasti) were planted into a blend of loam soil and sand and treated preemergence with test chemicals formulated in a non-phytotoxic solvent mixture which included a surfactant.
At the same time, plants selected from these crop and weed species and also barley (winter barley, Hordeum vulgare), canarygrass (Phalaris minor), chickweed (common chickweed, Stellaria media) windgrass (Apera spica-venti) and deadnettle (henbit deadnettle, Lamium amplexicaule) were planted in pots containing Redi-Earth® planting medium (Scotts Company, 14111 Scottslawn Road, Marysville, Ohio 43041) comprising spaghnum peat moss, vermiculite, wetting agent and starter nutrients and treated with postemergence applications of test chemicals formulated in the same manner. Plants ranged in height from 2 to 18 cm (1- to 4-leaf stage) for postemergence treatments.
Treated plants and controls were maintained in a greenhouse for 13 to 15 days, after which time all species were compared to controls and visually evaluated. Plant response ratings, summarized in Table C, are based on a scale of 0 to 100 where 0 is no effect and 100 is complete control. A dash (-) response means no test result.

[5] = test system: Waterhemp; experiment: Test C postemergence: waterhemp; format: in vivo, Amaranthus rudis; details: 125 g ai/ha, scale 0 to 100, 0 no effect, 100 complete control

## Cc1nn(-c2ccc(C(F)(F)F)c(F)c2)nc1Cc1ccnc(C(F)(F)F)c1 [Compound 162]
[1]; Postemergence, 4 g ai/ha, scale 0 to 100
  Plant response rating, Waterhemp: 80
[1]; Postemergence, 8 g ai/ha, scale 0 to 100
  Plant response rating, Waterhemp: 90
[1]; Postemergence, 16 g ai/ha, scale 0 to 100
  Plant response rating, Waterhemp: 90
[1]; Postemergence, 31 g ai/ha, scale 0 to 100
  Plant response rating, Waterhemp: 95
[1]; Postemergence, 62 g ai/ha, scale 0 to 100
  Plant response rating, Waterhemp: 95
[1]; Preemergence, 4 g ai/ha, scale 0 to 100, 0 no effect, 100 complete control
  Plant response rating, Waterhemp: 50
[1]; Preemergence, 8 g ai/ha, scale 0 to 100, 0 no effect, 100 complete control
  Plant response rating, Waterhemp: 85
[1]; Preemergence, 16 g ai/ha, scale 0 to 100 (0 no effect, 100 complete control)
  Plant response rating, Waterhemp: 90
[1]; Preemergence, 31 g ai/ha, scale 0 to 100 (0 no effect, 100 complete control)
  Plant response rating, Waterhemp: 100
[2]; 4 g ai/ha
  Plant response rating, Surinam Grass: 0
[2]; 8 g ai/ha
  Plant response rating, Surinam Grass: 0
[3]; 4 g ai/ha, scale 0 to 100, 0 no effect, 100 complete control
  Plant response rating, Goosegrass: 0
[3]; 8 g ai/ha, scale 0 to 100, 0 no effect, 100 complete control
  Plant response rating, Goosegrass: 0
[3]; 16 g ai/ha, scale 0 to 100 (0 no effect, 100 complete control)
  Plant response rating, Goosegrass: 95
[3]; 31 g ai/ha, scale 0 to 100 (0 no effect, 100 complete control)
  Plant response rating, Goosegrass: 100
[3]; 62 g ai/ha, scale 0 to 100
  Plant response rating, Goosegrass: 100
[4]
  Plant response rating, Oilseed Rape: 90
[5]
  Plant response rating, Waterhemp: 100
